# Key:
# [1] = Gelation experiment: viscosity of aqueous solutions; assay type: physicochemical; conditions: for Viscosity: Brookfield DV-II+, 10° C. ± 0.3° C., spindle S 51
# Method: The following test was carried out to evaluate the degree of gelation depending on the concentration of 2 methanesulfonic acid salt of the compound of Chemical Formula 1 according to the present invention.
# 200 mg of 2 methanesulfonic acid salt of the compound of Chemical Formula 1 was dissolved in 10 mL of water (20 mg/mL). The solution was diluted with water to give 20, 10, 5, and 2.5 mg/mL. Viscosity of these diluted solutions was measured according to the following test conditions described in Table 1, and also the results for the test are shown in Table 1.
# [2] = pH-dependent water solubility; assay type: physicochemical; conditions: pH about pH 5 or more
SMILES,Viscosity ([1]; 2.5 mg/ml in water),Viscosity ([1]; 5 mg/ml in water),Viscosity ([1]; 10 mg/ml in water),Viscosity ([1]; 20 mg/ml in water),gelation property in aqueous solution (in words) ([1]; aqueous solution),solubility in aqueous condition (in words) [2]
"CS(=O)(=O)O.CS(=O)(=O)O.Cc1nc(-c2ccc(OCCCCCOc3ccc(C(=N)NO)cc3)cc2)c(C(C)C)s1 [N-hydroxy-4-{5-[4-(5-isopropyl-2-methyl-1,3-thiazol-4-yl)phenoxy]pentoxy}-benzamidine 2 methanesulfonic acid salt]",6.34 cP,11.9 cP,20.0 cP,78.9 cP,high gelation property,
"Cc1nc(-c2ccc(OCCCCCOc3ccc(C(=N)NO)cc3)cc2)c(C(C)C)s1 [compound of Chemical Formula 1, N-hydroxy-4-{5-[4-(5-isopropyl-2-methyl-1,3-thiazol-4-yl)phenoxy]pentoxy}-benzamidine]",,,,,,practically insoluble
